Laboratory results from PubChem BioAssay AID330 (DTP/NCI, 2004).
Values joined by “and” are separate entries in the source; they are usually repeats but may differ in a detail not shown here. Equal values may be shown once. Toxic doses and inconclusive results are not listed.

Tested on: P388 leukemia ip, CD2F1 mice, survival T/C
Assay: NCI In Vivo Anticancer Drug Screen. Data for tumor model P388 Leukemia (intraperitoneal) in CD2F1 (CDF1) mice
Conditions: endpoint: median survival time, higher = longer survival
How it was run: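 Mice carrying the transplanted tumor received test compound or vehicle. Survival was recorded in each group, and the value is the treated-group measurement divided by that of the vehicle-treated control group.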

[1] = dose: 60.0 mg/kg/injection, schedule: Q01DX005 (ip), vehicle: Klucel (hydroxypropylcellulose) (HPC)
[2] = dose: 100.0 mg/kg/injection, schedule: Q04DX003 (ip), vehicle: Klucel (hydroxypropylcellulose) (HPC)
[3] = dose: 200.0 mg/kg/injection, schedule: Q04DX003 (ip), vehicle: Klucel (hydroxypropylcellulose) (HPC)
[4] = dose: 400.0 mg/kg/injection, schedule: Q04DX003 (ip), vehicle: Klucel (hydroxypropylcellulose) (HPC)
[5] = dose: 100.0 mg/kg/injection, schedule: Q04DX003 (ip), vehicle: saline
[6] = dose: 200.0 mg/kg/injection, schedule: Q04DX003 (ip), vehicle: saline
[7] = dose: 400.0 mg/kg/injection, schedule: Q04DX003 (ip), vehicle: saline
[8] = dose: 50.0 mg/kg/injection, schedule: Q01DX009 (ip), vehicle: saline
[9] = dose: 100.0 mg/kg/injection, schedule: Q01DX009 (ip), vehicle: saline
[10] = dose: 50.0 mg/kg/injection, schedule: Q01DX005 (ip), vehicle: Klucel (hydroxypropylcellulose) (HPC)
[11] = dose: 100.0 mg/kg/injection, schedule: Q01DX005 (ip), vehicle: Klucel (hydroxypropylcellulose) (HPC)
[12] = dose: 200.0 mg/kg/injection, schedule: Q01DX005 (ip), vehicle: Klucel (hydroxypropylcellulose) (HPC)
[13] = dose: 50.0 mg/kg/injection, schedule: Q01DX005 (ip), vehicle: saline with Tween-80
[14] = dose: 60.0 mg/kg/injection, schedule: Q01DX005 (ip), vehicle: saline with Tween-80
[15] = dose: 120.0 mg/kg/injection, schedule: Q01DX005 (ip), vehicle: saline with Tween-80
[16] = dose: 240.0 mg/kg/injection, schedule: Q01DX005 (ip), vehicle: saline with Tween-80
[17] = dose: 100.0 mg/kg/injection, schedule: Q01DX005 (ip), vehicle: saline with Tween-80
[18] = dose: 200.0 mg/kg/injection, schedule: Q01DX005 (ip), vehicle: saline with Tween-80

With `CCOC(=O)N[C@H]1CCc2cc(OC)c(OC)c(OC)c2-c2ccc(SC)c(=O)cc21` the T/C (dose: 0.75 mg/kg/injection, schedule: Q01DX009 (ip), vehicle: other) was 163 % of control, the T/C (dose: 1.5 mg/kg/injection, schedule: Q01DX009 (ip), vehicle: other) was 172 % of control and the T/C (dose: 3.0 mg/kg/injection, schedule: Q01DX009 (ip), vehicle: other) was 109 % of control and 114 % of control.

`COC(=O)[CH2][Ge]([c]1ccccc1)[c]1ccccc1.COC(=O)[CH2][Ge]([c]1ccccc1)[c]1ccccc1` was tested, and the T/C (dose: 15.0 mg/kg/injection, schedule: Q01DX005 (ip), vehicle: Klucel (hydroxypropylcellulose) (HPC)) was 97 % of control, the T/C (dose: 30.0 mg/kg/injection, schedule: Q01DX005 (ip), vehicle: Klucel (hydroxypropylcellulose) (HPC)) was 89 % of control and the T/C [1] was 89 % of control.

With `O=S(=O)(/C=C/c1cccnc1)/C=C/c1cccnc1` the T/C (dose: 25.0 mg/kg/injection, schedule: Q01DX009 (ip), vehicle: saline with Tween-80) was 106 % of control and the T/C (dose: 50.0 mg/kg/injection, schedule: Q01DX009 (ip), vehicle: saline with Tween-80) was 100 % of control.

In the case of `O=C(Nc1ccc(Cl)c(Cl)c1)N1CC=CC1`, the T/C [2] is reported as 101 % of control, the T/C [3] is reported as 96 % of control and the T/C [4] is reported as 94 % of control.

With `CC(O)COCCOCCO` (configuration not stated) the T/C [5] was 100 % of control, the T/C [6] was 100 % of control and the T/C [7] was 104 % of control.

`CC1(C)N=C(N)N=C(N)N1c1ccc(CCc2ccccc2)c(Cl)c1` was tested, and the T/C (dose: 4.1 mg/kg/injection, schedule: Q01DX009 (ip), vehicle: saline with Tween-80) was 118 % of control, the T/C (dose: 6.25 mg/kg/injection, schedule: Q04DX003 (ip), vehicle: saline sonified) was 113 % of control and the T/C (dose: 9.3 mg/kg/injection, schedule: Q01DX009 (ip), vehicle: saline with Tween-80) was 118 % of control. The T/C (dose: 12.5 mg/kg/injection, schedule: Q04DX003 (ip), vehicle: saline sonified) was 104 % of control and the T/C (dose: 25.0 mg/kg/injection, schedule: Q04DX003 (ip), vehicle: saline sonified) was 100 % of control.

`NCCN1CCc2ccccc2C1` was tested, and the T/C (dose: 6.25 mg/kg/injection, schedule: Q04DX003 (ip), vehicle: saline) was 95 % of control, the T/C (dose: 12.5 mg/kg/injection, schedule: Q04DX003 (ip), vehicle: saline) was 100 % of control and the T/C (dose: 25.0 mg/kg/injection, schedule: Q04DX003 (ip), vehicle: saline) was 100 % of control.

In the case of `C=C1CC2C(C1=O)C(c1ccc(OC)cc1)C13OC1CCC23` (configuration not stated), the T/C [2] is reported as 105 % of control, the T/C [3] is reported as 96 % of control and the T/C [4] is reported as 86 % of control.

In the case of `CCN(CC)C1=C/CC/C(c2ccccc2)=N/N=C\1c1ccccc1`, the T/C [1] is reported as 89 % of control, the T/C (dose: 120.0 mg/kg/injection, schedule: Q01DX005 (ip), vehicle: Klucel (hydroxypropylcellulose) (HPC)) is reported as 95 % of control and the T/C (dose: 240.0 mg/kg/injection, schedule: Q01DX005 (ip), vehicle: Klucel (hydroxypropylcellulose) (HPC)) is reported as 97 % of control.

`CC(=O)OC1CC[N+](C)(Cc2ccccc2)C1` (configuration not stated) was tested, and the T/C [8] was 107 % of control and the T/C [9] was 91 % of control.

With `COC(=O)C1c2cc3c(c(O)c2C(OC2OC(C)C(OC)C(C)(OC)C2OC)CC1(C)O)C(=O)c1c(O)cc2c(c1C3=O)OC1OC2(C)C(O)C(N(C)C=O)C1O` (configuration not stated) the T/C (dose: 1.56 mg/kg/injection, schedule: Q04DX003 (ip), vehicle: other) was 100 % of control, the T/C (dose: 3.12 mg/kg/injection, schedule: Q04DX003 (ip), vehicle: other) was 96 % of control and the T/C (dose: 6.25 mg/kg/injection, schedule: Q04DX003 (ip), vehicle: other) was 100 % of control. The T/C (dose: 12.5 mg/kg/injection, schedule: Q04DX003 (ip), vehicle: other) was 110 % of control and the T/C (dose: 25.0 mg/kg/injection, schedule: Q04DX003 (ip), vehicle: other) was 112 % of control.

With `CC1CCC(C(C)C)C(NC(=O)c2ccc[n+](C)c2)C1` (configuration not stated) the T/C (dose: 25.0 mg/kg/injection, schedule: Q04DX002 (ip), vehicle: saline) was 97 % of control and the T/C (dose: 50.0 mg/kg/injection, schedule: Q04DX002 (ip), vehicle: saline) was 97 % of control.

For `O=[N+]([O-])c1cc2cccc([N+](=O)[O-])c2o1`, the T/C [10] was 100 % of control, the T/C [11] was 109 % of control and the T/C [12] was 102 % of control.

`CCC1(C)CC(=O)NC(=O)C1` was tested, and the T/C (dose: 2.5 mg/kg/injection, schedule: Q01DX009 (ip), vehicle: saline with Tween-80) was 95 % of control, the T/C (dose: 5.0 mg/kg/injection, schedule: Q01DX009 (ip), vehicle: saline with Tween-80) was 95 % of control and the T/C (dose: 10.0 mg/kg/injection, schedule: Q01DX009 (ip), vehicle: saline with Tween-80) was 86 % of control.

In the case of `Nc1cc2nc3ccccc3nc2cc1N`, the T/C (dose: 25.0 mg/kg/injection, schedule: Q01DX005 (ip), vehicle: saline with Tween-80) is reported as 91 % of control and the T/C [13] is reported as 90 % of control.

`CC1(C)CC(NCCO)=CC(=S)N1` was tested, and the T/C [10] was 103 % of control, the T/C [11] was 101 % of control and the T/C [12] was 99 % of control.

For `CC1(C)OC(C(CCl)OS(C)(=O)=O)C(C(CCl)OS(C)(=O)=O)O1` (configuration not stated), the T/C (dose: 50.0 mg/kg/injection, schedule: Q04DX003 (ip), vehicle: Klucel (hydroxypropylcellulose) (HPC)) was 92 % of control, the T/C [2] was 100 % of control and the T/C [3] was 100 % of control.

`CCCCCCC[CH2][Sn]([Cl])([Cl])[Cl]` was tested, and the T/C [5] was 98 % of control, the T/C [6] was 102 % of control and the T/C [7] was 104 % of control.

`COc1cc(Br)cc(C=O)c1OC` was tested, and the T/C (dose: 12.5 mg/kg/injection, schedule: Q01DX009 (ip), vehicle: other) was 98 % of control, the T/C (dose: 25.0 mg/kg/injection, schedule: Q01DX009 (ip), vehicle: other) was 98 % of control and the T/C (dose: 50.0 mg/kg/injection, schedule: Q01DX009 (ip), vehicle: other) was 99 % of control. For the same molecule, the T/C (dose: 100.0 mg/kg/injection, schedule: Q01DX009 (ip), vehicle: other) was 98 % of control, the T/C (dose: 200.0 mg/kg/injection, schedule: Q01DX009 (ip), vehicle: other) was 102 % of control and the T/C (dose: 400.0 mg/kg/injection, schedule: Q01DX009 (ip), vehicle: other) was 114 % of control.

For `CCN(CC)CCOC(=O)Nc1c(Cl)cccc1Cl`, the T/C (dose: 25.0 mg/kg/injection, schedule: Q01DX005 (ip), vehicle: Klucel (hydroxypropylcellulose) (HPC)) was 100 % of control, the T/C [10] was 107 % of control and the T/C [1] was 100 % of control. For the same molecule, the T/C [11] was 100 % of control.

For `O=C1c2c(ccc3ccccc23)CN2CCCCC12` (configuration not stated), the T/C [14] was 101 % of control, the T/C [15] was 103 % of control and the T/C [16] was 103 % of control.

For `CN(C)C[N+](C)(C)Cc1ccc(C[N+](C)(C)C[N+](C)(C)Cc2ccc(CCl)cc2)cc1`, the T/C (dose: 0.19 mg/kg/injection, schedule: Q04DX003 (ip), vehicle: saline) was 100 % of control, the T/C (dose: 0.39 mg/kg/injection, schedule: Q04DX003 (ip), vehicle: saline) was 94 % of control and the T/C (dose: 0.78 mg/kg/injection, schedule: Q04DX003 (ip), vehicle: saline) was 103 % of control and 88 % of control. The T/C (dose: 1.56 mg/kg/injection, schedule: Q04DX003 (ip), vehicle: saline) was 88 % of control and the T/C (dose: 3.12 mg/kg/injection, schedule: Q04DX003 (ip), vehicle: saline) was 99 % of control.

For `CC(=O)/C(C(=N)C(=O)c1ccccc1)=C(\C)O`, the T/C [14] was 96 % of control, the T/C [15] was 98 % of control and the T/C [16] was 99 % of control.

`CN1CCC(O)CC1C(=O)O` (configuration not stated) was tested, and the T/C [8] was 98 % of control, the T/C [9] was 104 % of control and the T/C (dose: 200.0 mg/kg/injection, schedule: Q01DX009 (ip), vehicle: saline) was 105 % of control.

`CC(C)(C)OC(=O)NC(N)=NCCCC(NC(=O)OC(C)(C)C)C(=O)O` (configuration not stated) was tested, and the T/C [13] was 100 % of control, the T/C [17] was 103 % of control and the T/C [18] was 102 % of control.

With `O=C1CCC(c2nnc(COc3ccc(Cl)cc3)o2)N1Cc1ccccc1` (configuration not stated) the T/C (dose: 100.0 mg/kg/injection, schedule: Q01DX001 (ip), vehicle: saline with Tween-80) was 99 % of control, the T/C (dose: 200.0 mg/kg/injection, schedule: Q01DX001 (ip), vehicle: saline with Tween-80) was 102 % of control and the T/C (dose: 400.0 mg/kg/injection, schedule: Q01DX001 (ip), vehicle: saline with Tween-80) was 98 % of control.

`CCOc1ccccc1N=Nc1c(-c2ccccc2)nn(C(N)=S)c1-c1ccccc1` was tested, and the T/C [13] was 100 % of control, the T/C [17] was 108 % of control and the T/C [18] was 101 % of control.
